Measurements reported in patent US4845292A, “Hydroxy containing amines as phospholipase A2 inhibitors” (American Home Products Corporation, priority 1988, dated 1989).
Structures can show the parent of a compound that is named as a salt.

What was measured:
human platelet PLA2 = biological target: T1, human platelet PLA2 (Homo sapiens, UniProt P14555); experiment: Inhibition of cell free human platelet PLA2 (hydrolysis of [3H]-AA labelled E. coli phospholipids); format: biochemical; conditions: Table 1; compounds of the invention; human platelet PLA2, pH 7.4, 37° C., 30 minutes
T1 sequence (P14555 21-144): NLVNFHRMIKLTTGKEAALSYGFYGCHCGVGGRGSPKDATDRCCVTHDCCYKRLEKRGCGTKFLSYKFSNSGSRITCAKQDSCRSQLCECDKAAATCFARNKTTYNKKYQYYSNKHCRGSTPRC
Experimental: The ability of the compounds of the invention to inhibit the activity of cell free human platelet PLA2 enzyme is measured in the following in vitro assay.
(§1) The assay is carried out as follows:
E. coli, cultured to exponential growth, are sedimented for 15 minutes at 10,000 g and resuspended in sterile isotonic saline (1-3 ml). 10-25 μCi uniformly labeled [^3 H]-arachidonic acid (AA) is added to a sterile flask, evaporated by N2 and resolubilized with 0.3 ml 20% fatty acid-free bovine serum albumen (BSA). 75-100 ml of nutrient broth and 1 ml E. coli are then added to each flask and incubated for 2-3 hours at 37° C. [^3 H]-AA labelled E. coli are then sedimented, suspended in saline and added to fresh nutrient broth and incubated for 1.5 hours at 37° C. to complete [^3 H]-AA incorporation into the phospholipids. After overnight refrigeration of cultures, E. coli are again sedimented, suspended in saline and autoclaved for 15 minutes at 120° C. E. coli cultures are washed twice with saline (first wash contains 1% BSA) and resuspended in saline. Non-labelled E. coli cultures are also prepared in the same manner. Cell number is determined by measuring the optical density at 550 nm ([…]=1 O.D.). The amount of radioactivity associated with cells is determined by counting a defined volume of cell suspension. The specific activity is subsequently adjusted by adding non-labelled E. coli to yield 10,000 cpm/10 […] of E. coli/25 ml.
Platelet PLA2 Preparation
Expired human platelets from the blood bank are centrifuged for 15 minutes at 200 g to obtain a platelet rich fraction and to remove the red blood cells. Platelets are sedimented for 15 minutes at 2500 g and the plasma is removed before adding cold 0.18N H2 SO4 (4ml/unit). Platelets are homogenized, incubated for 1 hour at 4° C., homogenized again and centrifuged for 15 minutes at 10,000 g. The PLA2 enriched supernatant fluid is removed and the amount of protein is determined by the Lowry method. The preparation is divided into various portions and stored at -20° C.
The assay measures the hydrolysis of E. coli membrane phospholipids via the release of free [^3 H]-AA from the C-2 position of phospholipids by human platelet PLA2. To ice cold 15×100 mm test tubes, the following additions are made; 2.5×10^8 E. coli (equivalent to 5 nmol phospholipid), 5 mM Ca^++, 100 mM Tris buffer (pH=7.4), 100 μg platelet extract (or an amount to produce 20-30% hydrolysis), drug or vehicle. Incubations are carried out at 37° C. in a shaking water bath for 30 minutes. The reaction is terminated by the addition of 2 volumes of tetrahydrofuran (THF) and the mixture is vortexed. Hydrolyzed [^3 H]-AA is separated from unhydrolyzed phospholipid by solid phase extraction using Bond elute NH2 columns (Analytichem Internat.). Columns are conditioned with 0.5 ml THF followed by 0.5 ml THF:H2 O (2.0:0.1 ml/v/v). Samples are loaded onto columns and hydrolyzed [^ 3 H]-AA is eluted with 1 ml THF:glacial acetic acid (98.0:2.0 ml v/v). The eluant is transferred to vials, 10 ml Optifluor is added and the radioactivity is determined by liquid scintillation counting.
Treatments are corrected for non-enzymatic hydrolysis by subtracting the dpms in treatments containing no enzyme Mean [^3 H]-AA dpm is determined and a percent inhibition relative to vehicle treated samples is calculated.
The percent hydrolysis is calculated by the following equation: [formula]

[1] = tested on: rat carrageenan paw edema; experiment: Rat carrageenan paw edema; format: in vivo, rat (Sprague-Dawley); conditions: for ED50: Rattus norvegicus, po, 3 h, read-out: Oral ED50 (95% C.L.); for % Inhibition at 50 mg/kg (peroral): Table 5, 1 hour prior to carrageenan, edema at 3 hours
Experimental: The compounds in the scope of the invention are further tested in the rat carrageenan paw edema to determine their ability to inhibit the acute inflammatory response. This assay is carried out as follows: […] male Sprague-Dawley rats, in groups of 6 animals are injected subcutaneously in the right paw with 0.1 ml of 1% carrageenan at zero time. Mercury plethysmographic readings (ml) of the paw are made at zero times and 3 hours later. Test compounds are suspended or dissolved in 0.5% methylcellulose and given perorally 1 hour prior to carrageenan administration. The increase in paw volume (edema in ml.) produced by the carrageenan is measured. […] Unpaired Student's t-test is used to determine statistical significance.

[2] = tested on: synthesis of LTB4 by rat glycogen-elicited polymorphonuclear leukocytes (PMN); experiment: Inhibition of LTB4 synthesis by rat glycogen-elicited polymorphonuclear leukocytes in the presence of exogenous substrate; format: cell-based; conditions: Leukocyte, A23187 stimulated; for inhibition at 10 µM: Table 2, at 10 μM
Source text: This is especially true with respect to 5,12-diHETE, which is also denoted as LTB4 [see Ford-Hitchinson, J. Roy. Soc. Med., 74, 831 (1981)]. Compounds which inhibit the PLA2 -mediated release of arachidonic acid thereby effectively prevent the oxidation of arachidonic acid to the various leukotriene products via the lipoxygenase cascade. Accordingly, the specificity of action of PLA2 inhibitors can be determined by the activity of test compounds in this assay, which measures the ability of compounds to inhibit the synthesis of LTB4 by rat glycogen-elicited polymorphonuclear leukocytes (PMN) in the presence of exogenous substrate.
as §1
(§2) Rat polymorphonuclear leukocytes (PMNs) are obtained from female Wistar rats (150.200 g) which receive an injection of 6% glycogen (10 ml i.p.). Rats are sacrificed 18-24 hours post injection by CO2 asphyxiation and the elicited cells are harvested by peritoneal lavage using physiological saline (0.9% NaCl). The exudate is centrifuged at 400×g for 10 minutes. The supernatant fluid is discarded and the cell pellet is resuspended to a concentration of 2.0×10^7 cells/ml in HBSS containing Ca^++ and Mg^++ and 10 μM L-cysteine.
(§3) To 1 ml aliquots of cell suspension, test drugs or vehicle are added, then preincubated at 37° C. for 10 minutes. A23187 (1 μM), [^3 H]-AA (3.0 μCi/ml) and unlabeled AA (1 μM) are then added and the samples are further incubated for 10 minutes. The reaction is terminated by centrifugation and pelleting cells. Supernatants are then analyzed by HPLC analysis on a 15 cm×4.6 mm ID Supelcosil LC-18 (Supelco)(3M) column, using a two solvent system at a flow rate of 1.4 ml total flow as follows:
Gradient: (system is equillibrated with Solvent A)
Percent solvent changes are accomplished in a linear fashion.
(§4) Injections: 150 μl of each supernatant is injected directly onto column and ^3 H arachidonic acid metabolites are monitored using an on-line radioactivity detector (Ramona, IN/US, Fairfield, NJ).
Standards: 10^4 -2.0×10^4 dpm of eicosanoids of interest are injected in 90 μl EtOH cocktail.
Co-chromatography with standard [^3 H] leukotriene B4 (LTB4) in medium of stimulated PMN exposed to drug is compared to that found in medium of stimulated cells exposed to no drug, generating percent inhibition.
(§5) Results are expressed as percent inhibition at a given compound dose.

[3] = tested on: synthesis of TxB2 by rat glycogen-elicited polymorphonuclear leukocytes; experiment: Inhibition of synthesis of the cyclooxygenase product TxB2 (procedure of Example 7); format: cell-based; conditions: Leukocyte, rat PMN, A23187 stimulated; for inhibition at 10 µM: Table 3, at 10 μM
Experimental: as §2, §3, §4, §5
In this assay, the procedure of Example 7 is carried out as described. However, in order to determine cyclooxygenase activity, the samples are co-chromatographed with authentic reference [^3 H]-TxB2.
The results are calculated as in Example 7 and presented below: […]

Compound	IC50 (human platelet PLA2)	ED50 [1]	inhibition at 10 µM [2]	inhibition at 10 µM [3]	% Inhibition at 50 mg/kg (peroral) [1]	inhibition at 5 µM ([2]; Table 2, at 5 μM)	inhibition at 5 µM ([3]; Table 3, at 5 μM)
CC(=O)Oc1ccccc1C(=O)O [Aspirin, reference compound]	–	145 mg/kg	–	–	–	–	–
CCCCCCCCCCCCCCCCCCNC(CO)CCCC.Cl (centres unmarked) [Example 1, 2-(Octadecylamino)-1-hexanol, hydrochloride]	12 µM	–	24%	26%	26%	–	–
CCCC[C@@H](CO)NCCCCCCCCc1ccccc1.Cl [Example 2b, (S)-2[(8-Phenyloctyl)amino]-1-hexanol, hydrochloride]	45 µM	–	–	–	25%	52%	0%
CCCCC(CO)NCCCCCCc1ccccc1.Cl (centres unmarked) [Example 2c, 2-[(6-Phenylhexyl)amino]-1-hexanol, hydrochloride]	> 100 µM	–	16%	24%	34%	–	–
Cl.OC[C@@H]1CCCN1CCCCCCCCCCCOc1ccccc1 [Example 3a, (S)-1-(11-phenoxyundecyl)-2-pyrrolidinemethanol, hydrochloride]	17 µM	–	0%	37%	26%	–	–
OC[C@H](Cc1ccc(O)cc1)NCCCCCCCCCCc1ccccc1 [Example 5, (S)-4-hydroxy-α-[(10-phenyldecyl)amino]benzenepropanol, hydrochloride]	48 µM	–	–	–	–	–	–
COc1ccc2c(c1)c(CC(=O)O)c(C)n2C(=O)c1ccc(Cl)cc1 [Indomethacin, reference compound]	–	3.7 mg/kg	–	–	–	–	–

More lines, in order of falling IC50 (human platelet PLA2), values ahead:

IC50 (human platelet PLA2)	Compound	ED50 [1]	inhibition at 10 µM [2]	inhibition at 10 µM [3]	% Inhibition at 50 mg/kg (peroral) [1]	inhibition at 5 µM ([2]; Table 2, at 5 μM)	inhibition at 5 µM ([3]; Table 3, at 5 μM)
63 µM	COC(=O)C1CCCN1CCCCCCCCCCCOc1ccccc1 (racemic) [Example 3b, 1-(11-Phenoxyundecyl)-DL-proline methyl ester, hydrochloride]	–	–	–	–	–	–
33 µM	CCOC(CNCCCCCCCCCCCOc1ccccc1)OCC.Cl [Example 4, N-(2,2-diethoxyethyl)-11-phenoxyundecanamine, hydrochloride]	–	–	–	34%	–	–
19 µM	CCCCC(CO)NCCCCCCCCCCc1ccccc1.Cl (centres unmarked) [Example 2a, 2-[(10-Phenyldecyl)amino]-1-hexanol, hydrochloride]	–	89%	73%	39%	–	–
